Reference: US20230241257A1, “BIOTIN-MODIFIED DIMER AND USE THEREOF” (THE UNIVERSITY OF TOKYO, priority 2020, published 2023)

Tests used:
[1] = test system: human stomach cancer cells (MKN-45); experiment: Experiment 2: pharmacokinetics of Cupid-scFv antibody (24 h before)+^211At-psyche-B in MKN-45 cancer-bearing mouse models; assay type: in vivo, mice (BALB/cSlc nu/nu)
Description: The present experiment used highly CEA-expressing human stomach cancer cells (MKN-45). 9-week-old male immunodeficient mice (BALB/cSlc nu/nu) were used. MKN-45 cells (1×10^7/0.1 ml) were transplanted into the mice's subcutis on the right shoulder dorsal side to produce MKN-45 cancer-bearing mouse models. The mice were divided into four groups when the tumor volume became a predetermined size (on Day 13 after the transplantation). A Cupid-scFv antibody was administered in 100 μmol/0.1 ml via the caudal vein of each mouse. Twenty-four hours after administration of the Cupid-scFv antibody, ^211At-psyche-B (about 0.25 MBq/100 ml) was administered via the caudal vein of the mice. One minute, 1 hour, 6 hours, and 24 hours after administration of the ^211At-psyche-B, the mice were euthanized by collecting whole blood from the heart of each mouse under isoflurane anesthesia, and tumor tissues and normal tissues/organs were then excised. Normal tissues/organs: skin (lower right limb), muscle (right gastrocnemius muscle), heart, lung, spleen, pancreas, white fat (upper portion of right side testis), testis (right side), stomach (without contents), small intestine, large intestine, liver, brown fat, submandibular gland, thyroid gland (together with trachea), bone (right femur), cerebrum, eyeballs (both sides), bladder, and urine; the remaining residues were divided into three equal parts, and the three equal parts were defined to be residue-1, residue-2, and residue-3. After that, the weights of blood, plasma, urine, tumor, and normal tissues/organs were measured, and the radioactivity thereof was then measured using a γ counter. The amounts of the ^211At-psyche-B (radioactivity) accumulated in the blood, plasma, urine, tumor, and normal tissues/organs were calculated. That is to say, the rates (% ID/g) of the ^211At-psyche-B accumulated per unit weight (g) of the blood, plasma, urine, tumor, and normal tissues/organs, in the administered ^211At-psyche-B, were shown. Regarding accumulation of the ^211At-psyche-B in the thyroid gland, since the weight of the thyroid gland could not be precisely measured, it was shown that the rate (% ID) of the ^211At-psyche-B accumulated in the thyroid gland in the administered ^211At-psyche-B.

[2] = test system: human stomach cancer cells (MKN-45); experiment: Experiment 7: pharmacokinetics of ^211At-psyche-BR in the absence of Cupid-scFv antibody in MKN-45 cancer-bearing mouse models; assay type: in vivo, mice (BALB/cSlc nu/nu); conditions: no Cupid-scFv antibody
Description: The present experiment used human stomach cancer cells (MKN-45) expressing carcinoembryonic antigen (CEA). 9-week-old male immunodeficient mice (BALB/cSlc nu/nu) were used. MKN-45 cells (1×10^7/0.1 ml) were transplanted into the mice's subcutis on the right shoulder dorsal side to produce cancer-bearing mouse models. The mice were divided into four groups at the time the tumor volume became a predetermined size (on Day 19 after the transplantation), and ^211At-psyche-BR was administered via the caudal vein of each mouse. One minute, 1 hour, 6 hours, and 24 hours after administration of the ^211At-psyche-BR, the mice were euthanized by collecting whole blood from the heart of each mouse under isoflurane anesthesia, and tumor tissues and normal tissues/organs were then excised. Normal tissues/organs: muscle (right gastrocnemius muscle), heart, lung, spleen, pancreas, testis (both sides), stomach, stomach contents, small intestine (not including contents), large intestine (not including contents), liver, kidney, submandibular gland, thyroid gland (together with trachea), bone (right femur), and cerebrum. After that, the weights of blood, plasma, tumor, and normal tissues/organs were measured, and the radioactivity thereof was then measured using a γ counter. The amounts of the ^211At-psyche-BR (radioactivity) accumulated in the blood, plasma, urine, tumor, and normal tissues/organs were calculated. That is to say, the rates (% ID/g) of the ^211At-psyche-BR accumulated per unit weight (g) of the blood, plasma, urine, tumor, and normal tissues/organs, in the administered ^211At-psyche-BR were shown. Regarding accumulation of the ^211At-psyche-BR in the thyroid gland, since the weight of the thyroid gland could not be precisely measured, it was shown that the rate (% ID) of the ^211At-psyche-BR accumulated in the thyroid gland in the administered ^211At-psyche-BR.

## N=C1N[C@H]2[C@H](CS[C@H]2CCCCC(=O)NCCCCCC(=O)Nc2cc(NC(=O)CCCCCNC(=O)CCCC[C@@H]3SC[C@@H]4NC(=N)N[C@@H]43)cc(C(=O)NCCOCCOCCNC(=O)c3cccc([211At])c3)c2)N1 [^211At-psyche-B]
[1]; after 1 minute
  Accumulation in the kidney: 29.3±1.5 % ID/g
  Accumulation in the liver: 17.4±2.3 % ID/g
  Accumulation in the lung: 15.9±1.7 % ID/g
  Accumulation in the spleen: 4.9±1.7 % ID/g
  Accumulation in the tumor: 0.6±0.1 % ID/g
  Clearance from the blood: 46.4±1.4 % ID/g
  tumor-to-blood ratio: 0.01±0.00
  tumor-to-muscle ratio: 1.5±0.3
[1]; after 1 hour
  Accumulation in the kidney: 14.2±1.3 % ID/g
  Accumulation in the liver: 13.6±1.4 % ID/g
  Accumulation in the lung: 14.7±3.6 % ID/g
  Accumulation in the spleen: 7.9±1.1 % ID/g
  Accumulation in the tumor: 3.2±0.4 % ID/g
  Clearance from the blood: 40.6±3.2 % ID/g
  tumor-to-blood ratio: 0.08±0.01
  tumor-to-muscle ratio: 5.2±1.0
[1]; after 6 hours
  Accumulation in the kidney: 9.8±0.7 % ID/g
  Accumulation in the liver: 16.0±1.4 % ID/g
  Accumulation in the lung: 11.2±0.9 % ID/g
  Accumulation in the spleen: 10.1±0.3 % ID/g
  Accumulation in the tumor: 11.8±1.5 % ID/g
  Clearance from the blood: 29.4±0.9 % ID/g
  tumor-to-blood ratio: 0.40±0.05
  tumor-to-muscle ratio: 14.0±0.9
[1]; after 24 h
  Accumulation in the thyroid gland: 0.16±0.06 % ID
[1]; after 24 hours
  Accumulation in the kidney: 4.7±0.8%
  Accumulation in the liver: 15.5±0.1%
  Accumulation in the lung: 4.2±0.5%
  Accumulation in the spleen: 9.6±2.4%
  Accumulation in the tumor: 16.3±4.1%
  Clearance from the blood: 6.2±1.3 % ID/g
  administered amount excreted (blood): 94%
  tumor-to-blood ratio: 2.63±0.10
  tumor-to-muscle ratio: 26.5±4.6
[2]; after 1 minute
  Accumulation in the blood: 13.5±1.1 % ID/g
  Accumulation in the kidney: 72.7±5.6 % ID/g
  Accumulation in the liver: 51.1±5.9 % ID/g
  Accumulation in the tumor: 0.3±0.04 % ID/g
[2]; after 1 hour
  Accumulation in the blood: 2.1±0.2 % ID/g
  Accumulation in the kidney: 77.9±2.1 % ID/g
  Accumulation in the liver: 30.8±3.3 % ID/g
  Accumulation in the tumor: 0.4±0.02 % ID/g
[2]; after 6 hours
  Accumulation in the blood: 1.0±0.2 % ID/g
  Accumulation in the kidney: 32.1±8.2 % ID/g
  Accumulation in the liver: 19.6±0.5 % ID/g
  Accumulation in the tumor: 0.8±0.09 % ID/g
[2]; after 6 hours of administration
  Accumulation in the thyroid gland: 0.29±0.05 % ID
[2]; after 24 hours
  Accumulation in the blood: 0.2±0.04 % ID/g
  Accumulation in the kidney: 3.0±0.1%
  Accumulation in the liver: 5.0±0.2%
  Accumulation in the tumor: 0.4±0.02%
